Here are results for 14 molecules from publication PMC6331912, “7-Methoxytacrine-p-Anisidine Hybrids as Novel Dual Binding Site Acetylcholinesterase Inhibitors for Alzheimer’s Disease Treatment” (Molecules, 2015).

Holding throughout (format): biochemical
Assay [1] deals with human plasma butyrylcholinesterase (hBChE) (Homo sapiens, UniProt P06276). The assay can be described thus: biochemical. Conditions: for IC50: mean of at least three experiments, substrate BTCh, pH 7.4, 37 °C, read-out: hBChE IC50 ± SEM; for fold weaker inhibitor of hBChE related to tacrine: ratio of IC50 to tacrine.
Assay [2] deals with T1, human recombinant acetylcholinesterase (hAChE) (Homo sapiens, UniProt P22303).
T1 construct: purchased Sigma-Aldrich (Prague, Czech Republic)
Put plainly: biochemical. Conditions: for IC50: mean of at least three experiments, substrate ATCh, pH 7.4, 37 °C, read-out: hAChE IC50 ± SEM; for Selectivity for hAChE: ratio hBChE IC50/hAChE IC50; for fold weaker inhibitor of hAChE compared to tacrine: ratio of IC50 to tacrine.

Assay [3] concerns the target T2, AChE (Homo sapiens, UniProt P22303).
T2 construct: purchased Sigma-Aldrich (Prague, Czech Republic)
Put plainly: Kinetic study of AChE inhibition (Ellman's method, nonlinear regression, Lineweaver-Burk). Conditions: for Ki: estimated by nonlinear regression analysis, substrate ATCh; for type of inhibition: p < 0.05, apparent Vmax decreased, Km unchanged with increasing inhibitor concentration. On the procedure:
[…]. We used a kinetic assay in order to obtain information about the mode of inhibition and binding site of the target compounds. The mechanism of inhibition was analyzed by recording substrate concentration—enzymatic reaction rate curves in the presence of different concentrations of compounds 15 and 19. Analysis confirmed a non-competitive type of inhibition (p < 0.05) for both compounds. With increasing concentration of inhibitor, apparent Vmax decreased and Km remained unchanged. […] […]. Such a pattern of inhibition is also characteristic for donepezil and it may indicate prevailing interactions of the enzyme with PAS [36]. PAS of AChE is associated with the ability to induce Aβ aggregation, thus, compounds interacting with this region may inhibit such a process and could have additional benefit for the treatment of AD [37].
Figure 3 Steady-state inhibition of AChE hydrolysis of acetylthiocholine (ATCh) by compounds 15 and 19. […]. Lines were derived from a weighted least-squares analysis of data.
The kinetic study of AChE inhibition was performed by using Ellman’s method (described above). The type of inhibition was elucidated from the nonlinear regression analysis. Results for each type model of inhibition (competitive, noncompetitive, uncompetitive and mixed) were compared with sum-of-squares F-test. […]. Linear regression was used for calculation of Lineweaver-Burk plots. All calculations were performed using the GraphPad Prism software.

SMILES strings stand for the structures.

By IC50 is commonly meant the midpoint of a concentration-inhibition curve. Usually Ki stands for the dissociation constant of the complex between target and ligand, obtained from inhibition or displacement.

T2 sequence (P22303 32-614): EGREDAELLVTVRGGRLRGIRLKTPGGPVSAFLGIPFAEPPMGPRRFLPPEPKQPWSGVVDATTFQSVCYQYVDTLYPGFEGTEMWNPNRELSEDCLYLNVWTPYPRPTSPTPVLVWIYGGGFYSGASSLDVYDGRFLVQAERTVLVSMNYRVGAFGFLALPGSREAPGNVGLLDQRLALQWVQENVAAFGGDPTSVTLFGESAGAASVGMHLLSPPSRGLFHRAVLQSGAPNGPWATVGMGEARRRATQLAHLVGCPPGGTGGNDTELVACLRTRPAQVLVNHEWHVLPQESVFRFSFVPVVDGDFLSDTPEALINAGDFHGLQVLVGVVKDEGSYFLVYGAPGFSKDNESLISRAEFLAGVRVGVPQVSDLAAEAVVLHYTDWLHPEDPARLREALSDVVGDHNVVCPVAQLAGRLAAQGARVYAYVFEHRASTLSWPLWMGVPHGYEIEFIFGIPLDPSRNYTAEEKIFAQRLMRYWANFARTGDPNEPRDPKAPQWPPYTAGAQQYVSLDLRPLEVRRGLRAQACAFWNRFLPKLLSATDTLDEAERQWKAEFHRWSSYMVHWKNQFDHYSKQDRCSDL
T1 sequence (P22303 32-614): as above
Chain of human plasma butyrylcholinesterase (hBChE) (P06276 29-602): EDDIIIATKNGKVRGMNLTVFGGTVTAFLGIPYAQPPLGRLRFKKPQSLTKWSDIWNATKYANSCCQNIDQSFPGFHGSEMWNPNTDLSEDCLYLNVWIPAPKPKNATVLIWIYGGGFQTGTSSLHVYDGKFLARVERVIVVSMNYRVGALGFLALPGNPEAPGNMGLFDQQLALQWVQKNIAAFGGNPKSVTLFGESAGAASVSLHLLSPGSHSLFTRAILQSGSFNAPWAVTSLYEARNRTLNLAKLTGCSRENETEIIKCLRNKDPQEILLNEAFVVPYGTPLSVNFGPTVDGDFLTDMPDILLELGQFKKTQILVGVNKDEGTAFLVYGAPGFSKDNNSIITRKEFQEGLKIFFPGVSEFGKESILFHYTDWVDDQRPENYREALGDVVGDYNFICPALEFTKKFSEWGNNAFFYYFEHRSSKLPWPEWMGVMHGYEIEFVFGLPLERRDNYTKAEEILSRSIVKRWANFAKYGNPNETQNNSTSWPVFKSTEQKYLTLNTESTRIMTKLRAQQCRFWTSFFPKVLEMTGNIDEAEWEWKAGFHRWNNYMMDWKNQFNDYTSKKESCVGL

In the case of `COc1ccc(NC(=S)NCCCCCCCNc2c3c(nc4ccc(OC)cc24)CCCC3)cc1.O=C(O)C(O)C(O)C(=O)O` [compound 14, 3-{7-[(7-Methoxy-1,2,3,4-tetrahydroacridin-9-yl)amino]heptyl}-1-(4-methoxyphenyl)thiourea-2,3‑dihydroxy-succinate], the IC50 in assay [1] came to 3.13 ± 0.3 µM; in assay [2], 3.96 ± 0.1 µM. Besides, the “Selectivity for hAChE” value in assay [2] is 0.79.

Consider `COc1ccc(NC(=S)NCCNc2c3c(nc4ccc(OC)cc24)CCCC3)cc1.O=C(O)C(O)C(O)C(=O)O` [compound 9, 3-{2-[(7-Methoxy-1,2,3,4-tetrahydroacridin-9-yl)amino]ethyl}-1-(4-methoxyphenyl)thiourea-2,3‑dihydroxy-succinate], for which, in assay [1], the IC50 was determined as 1.03 ± 0.1 µM and the “fold weaker inhibitor of hBChE related to tacrine” value is 12.9 fold. Besides, in assay [2], the IC50 is 43.6 ± 2.1 µM and the “Selectivity for hAChE” value was found to be 0.02.

On to `COc1ccc(NC(=O)NCCCCCNc2c3c(nc4ccc(OC)cc24)CCCC3)cc1.O=C(O)C(O)C(O)C(=O)O` [compound 19, 3-{5-[(7-Methoxy-1,2,3,4-tetrahydroacridin-9-yl)amino]pentyl}-1-(4-methoxyphenyl)urea-2,3‑dihydroxy-succinate], for which the IC50 in assay [1] was determined as 10.9 ± 1.6 µM. Besides, in assay [3], the Ki was 0.453 ± 0.0251 µM and the type of inhibition entry was “non-competitive”. In assay [2], the IC50 is 1.35 ± 0.3 µM, the “Selectivity for hAChE” value worked out at 8.07 and the “fold weaker inhibitor of hAChE compared to tacrine” value is listed as 4.2 fold.

`COc1ccc(NC(=O)NCCCCNc2c3c(nc4ccc(OC)cc24)CCCC3)cc1.O=C(O)C(O)C(O)C(=O)O` [compound 18, 3-{4-[(7-Methoxy-1,2,3,4-tetrahydroacridin-9-yl)amino]butyl}-1-(4-methoxyphenyl)urea-2,3‑dihydroxy-succinate]: the concentration for half-maximal inhibition (IC50) in assay [1] turned out to be 9.34 ± 0.1 µM. For the same molecule, in assay [2], the IC50 is 13.8 ± 3.9 µM and the “Selectivity for hAChE” value was 0.68.

Consider `COc1ccc(NC(=S)NCCCNc2c3c(nc4ccc(OC)cc24)CCCC3)cc1.O=C(O)C(O)C(O)C(=O)O` [compound 10, 3-{3-[(7-Methoxy-1,2,3,4-tetrahydroacridin-9-yl)amino]propyl}-1-(4-methoxyphenyl)thiourea-2,3‑dihydroxy-succinate], for which, in assay [1], the IC50 is 8.73 ± 0.1 µM. Besides, in assay [2], the IC50 came to 6.36 ± 0.5 µM and the “Selectivity for hAChE” value was 1.37.

As for `COc1ccc(NC(=O)NCCCCCCCCNc2c3c(nc4ccc(OC)cc24)CCCC3)cc1.O=C(O)C(O)C(O)C(=O)O` [compound 22, 3-{8-[(7-Methoxy-1,2,3,4-tetrahydroacridin-9-yl)amino]octyl}-1-(4-methoxyphenyl)urea-2,3‑dihydroxy-succinate], in assay [1], the IC50 amounted to 1.34 ± 0.2 µM and the “fold weaker inhibitor of hBChE related to tacrine” value is on record as 16.8 fold. Moreover, in assay [2], the 50% inhibitory concentration (IC50) was 2.14 ± 0.6 µM and the “Selectivity for hAChE” value stood at 0.63.

With `COc1ccc(NC(=S)NCCCCCNc2c3c(nc4ccc(OC)cc24)CCCC3)cc1.O=C(O)C(O)C(O)C(=O)O` [compound 12, 3-{5-[(7-Methoxy-1,2,3,4-tetrahydroacridin-9-yl)amino]pentyl}-1-(4-methoxyphenyl)thiourea-2,3‑dihydroxy-succinate], the figures for the IC50 in assay [1] and in assay [2] were 13.5 ± 0.7 µM and 4.9 ± 0.3 µM, respectively. Moreover, in assay [2], the “Selectivity for hAChE” value came out at 2.71.

Regarding `COc1ccc(NC(=S)NCCCCCCCCNc2c3c(nc4ccc(OC)cc24)CCCC3)cc1.O=C(O)C(O)C(O)C(=O)O` [compound 15, 3-{8-[(7-Methoxy-1,2,3,4-tetrahydroacridin-9-yl)amino]octyl}-1-(4-methoxyphenyl)thiourea-2,3‑dihydroxy-succinate], the IC50 in assay [1] was found to be 10.2 ± 4.7 µM. Also, in assay [3], the Ki is 1.33 ± 0.125 µM and the type of inhibition entry is given as “non-competitive”. Further, in assay [2], the IC50 amounted to 1.36 ± 0.4 µM, the “Selectivity for hAChE” value was 7.53 and the “fold weaker inhibitor of hAChE compared to tacrine” value was determined as 4.2 fold.

For the molecule `COc1ccc(NC(=O)NCCNc2c3c(nc4ccc(OC)cc24)CCCC3)cc1.O=C(O)C(O)C(O)C(=O)O` [compound 16, 3-{2-[(7-Methoxy-1,2,3,4-tetrahydroacridin-9-yl)amino]ethyl}-1-(4-methoxyphenyl)urea-2,3‑dihydroxy-succinate], the IC50 in assay [1] is 11.9 ± 2.3 µM. Moreover, in assay [2], the IC50 turned out to be 44.9 ± 1.4 µM and the “Selectivity for hAChE” value is given as 0.27.

Turning to `COc1ccc(NC(=O)NCCCCCCNc2c3c(nc4ccc(OC)cc24)CCCC3)cc1.O=C(O)C(O)C(O)C(=O)O` [compound 20, 3-{6-[(7-Methoxy-1,2,3,4-tetrahydroacridin-9-yl)amino]hexyl}-1-(4-methoxyphenyl)urea-2,3‑dihydroxy-succinate], in assay [1], the IC50 is 5.75 ± 0.4 µM. In addition, in assay [2], the IC50 worked out at 4.56 ± 0.9 µM and the “Selectivity for hAChE” value is listed as 1.26.

Turning to `COc1ccc(NC(=S)NCCCCNc2c3c(nc4ccc(OC)cc24)CCCC3)cc1.O=C(O)C(O)C(O)C(=O)O` [compound 11, 3-{4-[(7-Methoxy-1,2,3,4-tetrahydroacridin-9-yl)amino]butyl}-1-(4-methoxyphenyl)thiourea-2,3‑dihydroxy-succinate], the IC50 worked out at 6.04 ± 0.1 µM in assay [1] and 32.8 ± 9.9 µM in assay [2]. In assay [2], the “Selectivity for hAChE” value is 0.18.

As for `COc1ccc(NC(=O)NCCCNc2c3c(nc4ccc(OC)cc24)CCCC3)cc1.O=C(O)C(O)C(O)C(=O)O` [compound 17, 3-{3-[(7-Methoxy-1,2,3,4-tetrahydroacridin-9-yl)amino]propyl}-1-(4-methoxyphenyl)urea-2,3‑dihydroxy-succinate], the IC50 in assay [1] came to 15.9 ± 4.1 µM. Moreover, in assay [2], the IC50 is 26.9 ± 5.9 µM and the “Selectivity for hAChE” value is reported as 0.59.

Take `COc1ccc(NC(=O)NCCCCCCCNc2c3c(nc4ccc(OC)cc24)CCCC3)cc1.O=C(O)C(O)C(O)C(=O)O` [compound 21, 3-{7-[(7-Methoxy-1,2,3,4-tetrahydroacridin-9-yl)amino]heptyl}-1-(4-methoxyphenyl)urea-2,3‑dihydroxy-succinate]: the IC50 in assay [1] amounted to 1.69 ± 0.2 µM; in assay [2], 1.72 ± 0.3 µM. Besides, in assay [2], the “Selectivity for hAChE” value is recorded as 0.98.

For `COc1ccc(NC(=S)NCCCCCCNc2c3c(nc4ccc(OC)cc24)CCCC3)cc1.O=C(O)C(O)C(O)C(=O)O` [compound 13, 3-{6-[(7-Methoxy-1,2,3,4-tetrahydroacridin-9-yl)amino]hexyl}-1-(4-methoxyphenyl)thiourea-2,3‑dihydroxy-succinate], the IC50 in assay [1] was 9.35 ± 0.1 µM. In assay [2], the IC50 is 10.3 ± 1.3 µM and the “Selectivity for hAChE” value is 0.90.
